Results: ChEMBL document CHEMBL3396985, “Nanomolar inhibitors of Mycobacterium tuberculosis glutamine synthetase 1: synthesis, biological evaluation and X-ray crystallographic studies” (Bioorg Med Chem Lett, 2015)
Converted amounts (≈) assume the structure as drawn. The source made the active and inactive calls. The calls are words filed in the database; no cut-off is given here.

Key:
[1] = Lipophilicity, log D of the compound; format: physicochemical; conditions: octanol/water
[2] = test system: Mycobacterium tuberculosis; experiment: Antimycobacterial activity against Mycobacterium tuberculosis assessed as inhibition of microbial proliferation after 6 days by cell titer blue reagent based assay; format: functional; conditions: 144 h
[3] = Inhibition of Mycobacterium tuberculosis glutamine synthetase 1 assessed as reduction in ADP formation incubated 1 hr in presence of glutamate, ammonium chloride and ATP
[4] = test system: HepG2; experiment: Cytotoxicity against human HepG2 cells after 40 hrs by celltiter Glo assay; format: cell-based; conditions: HepG2, 40 h
[5] = test system: Mycobacterium tuberculosis; experiment: microbe, parasite or virus in culture; conditions: H37Rv ATCC 25618
Description: Antimycobacterial activity against Mycobacterium tuberculosis H37Rv ATCC 25618 assessed as inhibition of microbial proliferation

[6] = test system: Mycobacterium tuberculosis; experiment: ATP competitive inhibition of Mycobacterium tuberculosis glutamine synthetase 1 assessed as reduction in ADP formation incubated 1 hr in presence of glutamate, ammonium chloride and ATP

Work on O=c1[nH]c2c(n3ccnc13)Cc1c(-c3cccc(Cl)c3)cccc1-2 yielded a logD [1] of 2.38, an IC80 [2] of 22 µM and an MIC [2] of 22 µM. For the same compound, the IC50 [3] was 0.61 µM and the IC50 [4] was 15 µM.
In the case of COc1cccc(-c2cccc3c2Cc2c-3n(CCCN(C)C)c(=O)c3nccn23)c1, the IC80 [2] is reported as greater than 30 µM, the MIC [2] is reported as greater than 30 µM and the IC50 [3] is reported as 0.084 µM. The IC50 [4] was 15 µM.
Work on O=c1c2nccn2c2c(n1C1CC1)-c1cccc(-c3ccccn3)c1C2 yielded an IC80 [2] greater than 30 µM, an MIC [2] greater than 30 µM and an IC50 [3] of 0.456 µM. The IC50 [4] was greater than 30 µM.
C[S@](=N)(=O)CC[C@H](N)C(=O)O showed an MIC [5] of 10 µM (≈ 1.8 µg/mL).
Compound C=CCn1c2c(n3ccnc3c1=O)Cc1c(-c3ccccc3)cccc1-2 has a logD [1] of 2.7, an IC80 [2] greater than 30 µM and an MIC [2] greater than 30 µM. The IC50 [3] was 0.333 µM and the IC50 [4] was greater than 30 µM.
C=CCCn1c2c(n3ccnc3c1=O)Cc1c(-c3cccnc3)cccc1-2 gave an IC80 [2] greater than 30 µM, an MIC [2] greater than 30 µM and an IC50 [3] of 0.007 µM. It also gave an IC50 [4] greater than 30 µM.
Work on O=c1c2nccn2c2c(n1Cc1ccccc1)-c1cccc(-c3ccccc3)c1C2 yielded a logD [1] of 3.33, an IC80 [2] of 29 µM and an MIC [2] of 29 µM. The IC50 [3] was 0.663 µM and the IC50 [4] was 20 µM.
With CC(C)Cn1c2c(n3ccnc3c1=O)Cc1c(-c3cccnc3)cccc1-2 the IC80 [2] was greater than 30 µM, the MIC [2] was greater than 30 µM and the IC50 [3] was 0.066 µM. It also gave an IC50 [4] greater than 30 µM.
For CN(C)CCCn1c2c(n3ccnc3c1=O)Cc1c(-c3ccccn3)cccc1-2, the IC80 [2] was greater than 30 µM, the MIC [2] was greater than 30 µM and the IC50 [3] was 0.857 µM. The IC50 [4] was greater than 30 µM.
Work on CC(=O)Nc1cccc2c1Cc1c-2[nH]c(=O)c2nccn12 yielded an IC80 [2] greater than 30 µM, an MIC [2] greater than 30 µM and an IC50 [3] of 2.1 µM. It also gave an IC50 [4] greater than 30 µM.
Cn1c2c(n3ccnc3c1=O)Cc1c(-c3ccccc3)cccc1-2 showed a logD [1] of 2.25, an IC80 [2] greater than 30 µM and an MIC [2] greater than 30 µM. The IC50 [3] was 0.17 µM and the IC50 [4] was greater than 30 µM.
O=c1[nH]c2c(n3ccnc13)Cc1c-2cccc1-c1cccc2ncccc12 showed a logD [1] of 1.02, an IC80 [2] greater than 30 µM and an MIC [2] greater than 30 µM. It also gave an IC50 [3] of 7 µM and an IC50 [4] greater than 30 µM.
With CN(C)CCCn1c2c(n3ccnc3c1=O)Cc1c(-c3cccnc3)cccc1-2 the IC80 [2] was greater than 30 µM, the MIC [2] was greater than 30 µM and the IC50 [3] was 0.131 µM. For the same compound, the IC50 [4] was greater than 30 µM.
With COCCn1c2c(n3ccnc3c1=O)Cc1c(-c3ccccc3)cccc1-2 the IC80 [2] was greater than 30 µM, the MIC [2] was greater than 30 µM and the IC50 [3] was 0.219 µM. The IC50 [4] was 23 µM.
COc1cccc(-c2cccc3c2Cc2c-3[nH]c(=O)c3nccn23)c1 gave a logD [1] of 1.87, an IC80 [2] greater than 30 µM and an MIC [2] greater than 30 µM. The IC50 [3] was 0.051 µM and the IC50 [4] was greater than 30 µM.
For O=c1[nH]c2c(n3ccnc13)Cc1c(-c3cccnc3)cccc1-2, the logD [1] was 0.26, the IC80 [2] was 29 µM and the MIC [2] was 29 µM. The IC50 [3] was 0.031 µM and the IC50 [4] was greater than 30 µM.
O=c1[nH]c2c(n3ccnc13)Cc1c(Br)cccc1-2 showed a logD [1] of 1.77, an IC80 [2] greater than 30 µM and an MIC [2] greater than 30 µM. It also gave an IC50 [3] greater than 0.03 µM and an IC50 [4] greater than 30 µM.
O=c1[nH]c2c(n3ccnc13)Cc1c(-c3ccccc3)cccc1-2 gave a logD [1] of 3.52, an IC80 [2] greater than 30 µM and an MIC [2] greater than 30 µM. For the same compound, the inhibition [6] was “Active”, the IC50 [3] was 0.031 µM and the IC50 [4] was greater than 30 µM.
